In brackets after ≈: the same amount, converted by molar mass. Where two headings read alike, the source gives them in different places.
Legend:
Mtb [1] = test: microbe, parasite or virus in culture; type: cell-based, Mycobacterium tuberculosis; conditions: Mycobacterium tuberculosis, read-out: MIC (II)
Mtb [2] = test: microbe, parasite or virus in culture; type: cell-based, Mycobacterium tuberculosis; conditions: Mycobacterium tuberculosis, read-out: MIC (I)
Mtb [3] = test: microbe, parasite or virus in culture; type: cell-based, Mycobacterium tuberculosis; conditions: Mycobacterium tuberculosis, read-out: MIC (III)
in vitro [4] = conditions: African green monkey
in vitro [5] = conditions: human
[6] = system: Mtb in J744.1 murine macrophage cells; test: microbe, parasite or virus in culture; type: cell-based; conditions: Mycobacterium tuberculosis, 120 h, read-out: MIC50, intracellular CFU assay
[7] = target: M. smegmatis DprE1 (DprE1/DprE2 epimerase) (Mycolicibacterium smegmatis, UniProt A0R607); type: biochemical
Sequence of M. smegmatis DprE1 (DprE1/DprE2 epimerase) (A0R607 whole entry): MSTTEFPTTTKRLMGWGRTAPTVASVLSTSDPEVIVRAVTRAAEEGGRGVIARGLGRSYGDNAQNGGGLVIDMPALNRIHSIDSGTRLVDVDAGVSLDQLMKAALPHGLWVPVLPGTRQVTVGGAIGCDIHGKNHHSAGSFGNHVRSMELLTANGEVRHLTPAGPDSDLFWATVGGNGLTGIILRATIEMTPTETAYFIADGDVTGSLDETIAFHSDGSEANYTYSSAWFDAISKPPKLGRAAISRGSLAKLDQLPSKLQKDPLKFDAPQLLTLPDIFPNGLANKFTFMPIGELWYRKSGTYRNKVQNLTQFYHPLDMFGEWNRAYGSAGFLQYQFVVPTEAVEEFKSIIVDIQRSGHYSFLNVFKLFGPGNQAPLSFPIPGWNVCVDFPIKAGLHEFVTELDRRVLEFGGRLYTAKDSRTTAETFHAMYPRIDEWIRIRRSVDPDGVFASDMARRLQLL

[8] = system: exponentially growing virulent Mtb; type: cell-based, Mycobacterium tuberculosis

In the case of `CCOC(=O)NC(=O)c1ccsc1NC(=O)c1nc2ccc(Cl)cc2[nH]1` [Compound 72], the MIC (Mtb [1]) is reported as > 3 µg/mL, the MIC (Mtb [2]) is reported as 1 to 3 µg/mL (≈ 2.55 to 7.64 µM) and the MIC (Mtb [3]) is reported as 5 to 25 µg/mL (≈ 12.7 to 63.6 µM). The CC50 (in vitro [4]) was > 50 µg/mL and the CC50 (in vitro [5]) was > 50 µg/mL.
In the case of `CCOC(=O)NC(=O)c1ccsc1NC(=O)c1ccnc(NC(=O)OC)c1` [Compound 61], the MIC (Mtb [1]) is reported as < 1 µg/mL, the MIC (Mtb [2]) is reported as 1 to 3 µg/mL (≈ 2.55 to 7.65 µM) and the MIC (Mtb [3]) is reported as 5 to 25 µg/mL (≈ 12.7 to 63.7 µM). For the same compound, the CC50 (in vitro [4]) was > 50 µg/mL and the CC50 (in vitro [5]) was 25 to 50 µg/mL (≈ 63.7 to 127 µM).
In the case of `CCOC(=O)NC(=O)c1ccsc1NC(=O)c1cn2ccccc2n1` [Compound 76], the MIC (Mtb [1]) is reported as > 3 µg/mL, the MIC (Mtb [2]) is reported as 1 to 3 µg/mL (≈ 2.79 to 8.37 µM) and the MIC (Mtb [3]) is reported as < 5 µg/mL. For the same compound, the CC50 (in vitro [4]) was > 50 µg/mL and the CC50 (in vitro [5]) was > 50 µg/mL.
With `CCOC(=O)NC(=O)c1ccsc1NC(=O)c1ccc2sc(C)nc2c1` [Compound 10] the MIC (Mtb [1]) was < 1 µg/mL, the MIC (Mtb [2]) was < 1 µg/mL and the CC50 (in vitro [4]) was 25 to 50 µg/mL (≈ 64.2 to 128 µM). The CC50 (in vitro [5]) was > 50 µg/mL.
`CO[C@H]1/C=C/O[C@@]2(C)Oc3c(C)c(O)c4c(O)c(c(/C=N/N5CCN(C)CC5)c(O)c4c3C2=O)NC(=O)/C(C)=C\C=C\[C@H](C)[C@H](O)[C@@H](C)[C@@H](O)[C@@H](C)[C@H](OC(C)=O)[C@@H]1C` [RIF, rifampicin] gave an MIC50 [6] of 2.7 µg/mL (≈ 3.28 µM).
For `CCOC(=O)NC(=O)c1ccsc1NC(=O)c1nc2ccccc2s1` [Compound 1], the MIC (Mtb [1]) was 1 to 3 µg/mL (≈ 2.66 to 7.99 µM), the MIC (Mtb [2]) was 1 to 3 µg/mL (≈ 2.66 to 7.99 µM) and the MIC (Mtb [3]) was > 25 µg/mL. For the same compound, the CC50 (in vitro [4]) was > 50 µg/mL and the CC50 (in vitro [5]) was > 50 µg/mL.
With `C[C@H]1COC2(CCN(c3nc(=O)c4cc(C(F)(F)F)cc([N+](=O)[O-])c4s3)CC2)O1` [BTZ043] the “inhibition of conversion of DPR to DPA by DprE1” value [7] was “potently inhibit”.
For `CCOC(=O)NC(=O)c1ccsc1NC(=O)c1nc2cc(F)ccc2s1` [Compound 53], the MIC (Mtb [1]) was < 1 µg/mL, the MIC (Mtb [2]) was < 1 µg/mL and the CC50 (in vitro [4]) was < 25 µg/mL. For the same compound, the CC50 (in vitro [5]) was 25 to 50 µg/mL (≈ 63.5 to 127 µM).
For `NNC(=O)c1ccncc1` [INH, isoniazid], the “drop in CFU compared with TCA1” value [8] was “comparable drop in CFU over the first seven days” and the MIC50 [6] was 0.2 µg/mL (≈ 1.46 µM).
For `CCOC(=O)NC(=O)c1ccsc1NC(=O)c1ccnc(NC(=O)C(C)(C)C)c1` [Compound 60], the MIC (Mtb [1]) was < 1 µg/mL, the MIC (Mtb [2]) was < 1 µg/mL and the MIC (Mtb [3]) was > 25 µg/mL. For the same compound, the CC50 (in vitro [4]) was > 50 µg/mL and the CC50 (in vitro [5]) was > 50 µg/mL.
